Our source for the TGI and GI50 values is PubChem BioAssay (NCI).

What all share (assay): growth of human tumour cells (NCI), 48 h
For test [1], the system named is M14 melanoma.
Test [2] deals with HCC-2998 colon.
Test [3] relates to NCI-H23 lung.
For test [4], the system named is SK-MEL-2 melanoma.
For test [5], the system named is OVCAR-5 ovarian.
Test [6] deals with SK-OV-3 ovarian.
The test system of test [7] is EKVX NSCLC.
For test [8], the system named is RXF 393 renal.
In test [9] the test system is SK-MEL-5 melanoma.
For test [10], the system named is T-47D breast.

Several values for one entry are separate records, joined by “and”; a condition that tells them apart may be missing. Equal values may be shown once.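 How tested: cells in 96-well plates exposed to compound for 48 hours at five concentrations. GI50 = concentration required for 50% inhibition of growth. TGI denotes the concentration required for complete inhibition of growth.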

As to `CC(=O)OCc1nnn2c1C(OC(C)=O)CC2` (stereo not drawn), the TGI in test [1], in [2], in test [3], in test [4], in [5] and in test [6] was greater than 100 µM each time. Besides, the TGI in test [7], in [8] and in test [9] was greater than 100 µM throughout.

Turning to `CCOC(=O)c1c(C)n([O-])c2cc(F)c(F)cc2[n+]1=O`, the GI50 is 1.09 µM in test [1]; 1.87 µM in test [10]; 1.88 µM in test [3]; 2.8 µM in [4]; 1.78 µM in [5]; 1.93 µM in test [6]. The GI50 in [7] was 1.96 µM; in test [8], 1.8 µM; in [9] it was 2.31 µM. Moreover, the TGI in test [1] turned out to be 2.58 µM; in test [10], 3.69 µM; in [3] it was 3.78 µM; in [5], 3.2 µM; in test [6] it was 3.48 µM; in [7], 3.98 µM. The TGI in [8] came out at 5.76 µM; in test [9], 5.45 µM.

As to `O=C(O)C1=Cc2cccc3cccc(c23)C1=O`, the TGI in [1], in test [2], in test [3], in [4], in [5] and in test [6] was greater than 100 µM throughout. Besides, the TGI in [7], in test [8] and in [9] was greater than 100 µM throughout.

With `COC(=O)C1c2cc3c(c(O)c2CCC1(C)O)C(=O)c1c(O)cc2c(c1C3=O)OC1OC2(C)C(O)C(N(C)C)C1O` (stereo not drawn), the TGI in [1] worked out at 5.33 µM; in test [10] it was 1.61 µM; in [3], 1.99 µM; in test [4] it was 18.8 µM; in [5] it was 1.03 µM; in test [6], 15 µM. For the same compound, the figures for the TGI in test [7], in test [8] and in test [9] were 0.774 µM, 1.55 µM and 1.73 µM, respectively.

`CCOC(=O)c1c(-c2ccccc2)n2c(=O)cc(C)c3c(O)c(O)cc1c32`: the GI50 in [1] is 5.84 µM; in test [10], 5.43 µM; in [3] it was 6.06 µM; in test [4] it was 4.09 µM; in test [5], 22.5 µM; in test [6], 16 µM. Further, the GI50 in test [7] is 8.73 µM; in [8] it was 11.9 µM; in test [9], 4.44 µM. The TGI in test [1] was 20.2 µM; in [10], greater than 100 µM; in [3], 37.5 µM; in [4], 41.3 µM; in test [5], 46.7 µM; in [6], greater than 100 µM. The TGI in [7] was found to be 24.3 µM; in [8], 30.9 µM; in [9] it was 16.9 µM.

Take `O=C(O)CN1C(=O)OC(c2ccccc2)C1=O` (stereo not drawn): the TGI in [1], in [10], in test [3], in [4], in test [5] and in test [6] was greater than 100 µM each time. Moreover, the TGI in test [7], in test [8] and in [9] was greater than 100 µM throughout.

For the compound `CCN1C(=O)/C(=c2\sc3n(c2=O)C2C(NN=3)N(CC)C(=O)N2CC)c2ccccc21` (stereo not drawn), the GI50 in test [1] is 0.347 µM; in [2] it was 0.859 µM; in test [3] it was 0.808 µM; in [4] it was 3.21 µM; in test [5] it was 2.02 µM; in test [6], 2.12 µM. The GI50 in test [7] was 0.851 µM; in test [8], 0.279 µM; in test [9], 0.463 µM. The TGI in test [1] is 21.7 µM; in test [2], greater than 76.8 µM; in test [3], 17.6 µM; in [4] it was 44.2 µM; in [5], greater than 100 µM; in test [6], greater than 55.7 µM. In addition, the TGI in [7] was greater than 100 µM; in test [8], 0.814 µM; in [9], 7.44 µM.

`CCOC(=O)CCc1c(C)c2c(OC)cc(OC)cc2oc1=O`: the TGI in test [1], in [2], in [3], in test [4], in test [5] and in test [7] was greater than 100 µM throughout. This compound also returned a TGI in test [8] of 82.4 µM.

As for `O=C(Cc1cc(O)ccc1O)NO`, the GI50 is greater than 100 µM in test [1]; greater than 100 µM in [2]; greater than 100 µM in test [3]; greater than 100 µM in [4]; 18.7 µM in test [5]; greater than 100 µM in [6]. For the same compound, the GI50 in test [7] is greater than 100 µM; in test [8], 71.7 µM; in test [9], greater than 100 µM. Moreover, the TGI was greater than 100 µM in test [1]; greater than 100 µM in test [2]; greater than 100 µM in test [3]; greater than 100 µM in test [4]; 34.1 µM in test [5]; greater than 100 µM in test [6]. Moreover, the TGI in test [7], in [8] and in test [9] was greater than 100 µM in each case.

As for `CC[O-].CC[O-].O=C1C=C([O-])C(=O)c2ccccc21.O=C1C=C([O-])C(=O)c2ccccc21.[Ti+4]`, the GI50 in test [1] is 8.52 µM; in test [2], 46.1 µM; in test [3], 4.43 µM; in test [4], 9.89 µM; in test [5] it was greater than 100 µM; in test [6] it was greater than 100 µM. Further, the GI50 in [7] was greater than 100 µM; in [8], greater than 100 µM; in [9] it was 3.07 µM. In addition, the TGI in [1], in [2], in [3], in test [4], in [5] and in test [6] was greater than 100 µM in each case. Moreover, the TGI is greater than 100 µM in test [7], greater than 100 µM in test [8] and 55.9 µM in test [9].

As to `Cc1[nH]c(=O)n2c(C)nnc2c1C(=O)O`, the TGI in [1], in test [3], in test [4], in [5], in test [6] and in test [7] was greater than 100 µM each time. Further, the TGI in test [8] was greater than 100 µM.

For `CCN1CCN(Cc2ccc(NC(=O)Nc3nc(-c4cc(OC)c(OC)c(OC)c4)cs3)cc2C(F)(F)F)CC1`, the GI50 in test [1] was 1.58 µM; in test [2], 1.8 µM; in [3], 1.69 µM; in test [4], 1.9 µM; in test [5], 1.62 µM; in test [6], 1.71 µM. The GI50 in [7] is 1.81 µM; in [8], 1.41 µM; in [9] it was 1.67 µM. Moreover, the TGI came out at 3.16 µM in test [1]; 3.4 µM in test [2]; 3.59 µM in test [3]; 3.61 µM in [4]; 3.44 µM in test [5]; 3.85 µM in [6]. The values for the TGI in test [7], in test [8] and in [9] were 4.25 µM, 2.84 µM and 3.04 µM, respectively.

Regarding `CCCCCCCCCCCCC(O)C1CCC(C(O)CCCCC(O)CCCCCC2CC(CC(C)=O)C(=O)O2)O1` (stereo not drawn), the GI50 is 1.66 µM in test [1]; 1.36 µM in test [4]; 3.92 µM in test [5]; 1.08 µM in test [7]; 5.33 µM in test [8]; 0.112 µM in test [9]. The TGI is 3.33 µM and 22.2 µM in [1]; 16.3 µM in test [2]; 13.6 µM in test [3]; 2.88 µM and 15.8 µM in test [4]; 23.6 µM in test [5]; 26 µM in test [6]. The TGI in [7] was 4.11 µM and 20.8 µM; in test [8], 21.4 µM; in test [9] it was 2.11 µM and 5.09 µM.

For the compound `OC1(C(Sc2ccccc2)Sc2ccccc2)CCCCCC1`, the TGI in test [1] is 49.2 µM; in test [3], greater than 100 µM; in test [4], 41.2 µM; in [6] it was 53.5 µM; in [7] it was 63.5 µM; in test [9], 29.6 µM.

As to `N#CC1=C(N)N=C(N2CCOCC2)C(C#N)C12Nc1ccccc1S2` (stereo not drawn), the GI50 in test [1] was 35 µM; in test [10], 27.3 µM; in test [4], 35.2 µM; in [5], 45.1 µM; in test [6] it was 24.1 µM; in [7], 1.7 µM. The figures for the GI50 in test [8] and in test [9] were 19 µM and 12.5 µM, respectively. The TGI is 65.4 µM in test [1]; 88.2 µM in test [10]; 95 µM in [4]; greater than 100 µM in test [5]; greater than 100 µM in test [6]; 15.6 µM in test [7]. Moreover, the TGI in [8] is greater than 100 µM; in test [9], 28.2 µM.

On to `COC(=O)C1C(C(=O)O)C2(c3ccccc3)C(=O)C1(c1ccccc1)C(c1ccc(OC)cc1)=C2c1ccc(OC)cc1` (stereo not drawn), for which the GI50 in test [1] is 18.6 µM; in test [2], 13.9 µM; in test [3], 17.5 µM; in test [4], 20.5 µM; in test [5] it was 20.8 µM; in [6], 25.3 µM. Further, the GI50 is 18.6 µM in test [7], 16.1 µM in test [8] and 16.8 µM in test [9]. Also, the TGI stood at 34.8 µM in test [1]; 27.8 µM in test [2]; 33.7 µM in test [3]; 44 µM in [4]; 45.9 µM in test [5]; 59.4 µM in [6]. The TGI in test [7] worked out at 52.7 µM; in [8], 34.8 µM; in [9] it was 32.4 µM.

Take `O=C(O)c1ccc(CSc2nc3ccccc3[nH]2)cc1`: the GI50 in [1], in test [2], in [3], in test [4], in [5] and in [6] was greater than 100 µM in each case. The GI50 in test [7], in test [8] and in [9] was greater than 100 µM in each case. The TGI in test [1], in test [2], in test [3], in test [4], in test [5] and in test [6] was greater than 100 µM each time. For the same compound, the TGI in [7], in test [8] and in test [9] was greater than 100 µM in each case.

As for `COC(=O)c1cc(O)ccc1O`, the TGI in [1], in test [2], in test [4], in [5], in test [6] and in [7] was greater than 100 µM throughout. In addition, the TGI in [8] and in test [9] was greater than 100 µM in each case.

On to `COc1ccc2nc3cc([N+](=O)[O-])ccc3c(NCCO)c2c1`, for which the GI50 in test [1] was 1.89 µM; in test [10] it was 0.539 µM; in test [3], 2.68 µM; in [5], 5.55 µM; in test [6], 2.78 µM; in test [7], 24.4 µM. The GI50 in test [9] is 1.61 µM. For the same compound, the TGI in test [1] turned out to be 4.28 µM; in [10], 4.65 µM; in test [3], 9.59 µM; in test [5], 28.1 µM; in test [6], 14.9 µM; in test [9], 3.26 µM.

For `CC(=O)OC(C(=O)[O][Ge]([CH3])([CH3])[CH3])c1ccccc1` (stereo not drawn), the GI50 in test [1], in test [2], in test [3], in [5], in test [6] and in test [7] was greater than 100 µM each time. The GI50 in test [8] is 0.264 µM; in test [9], greater than 100 µM. Besides, the TGI in test [1], in test [2], in [3], in [5], in test [6] and in test [7] was greater than 100 µM throughout. Moreover, the TGI in test [8] is 7.09 µM; in test [9], greater than 100 µM.

Regarding `CC(=O)Oc1ccc2c(=O)c(C(C)=O)coc2c1`, the TGI in [1], in test [3], in test [4], in test [5], in test [7] and in test [8] was greater than 100 µM throughout. The TGI in test [9] was greater than 100 µM.

Take `CCOC(=O)C(C(=O)OCC)=C1C=C(c2ccccc2)c2ccccc21`: the TGI in test [1], in test [2], in test [3], in test [4], in test [5] and in test [6] was greater than 100 µM in each case. Also, the TGI in [7], in [8] and in test [9] was greater than 100 µM throughout.
